Reference: ChEMBL document CHEMBL4052645, “Discovery of potent and efficacious pyrrolopyridazines as dual JAK1/3 inhibitors” (Bioorg Med Chem Lett, 2017)
≈ marks a conversion by molar mass, not a printed value. Calls of active or inactive are those of the source. The calls are words filed in the database; no cut-off is given here.

Columns and labels:
[1] = Selectivity ratio of IC50 for JAK2 dependent EPO-induced STAT5A phosphorylation in human TF1 cells to IC50 for JAK1/JAK3 dependent IL2-induced STAT3 phosphorylation in human PBMC derived T-cells
[2] = biological target: T1, Voltage-gated inwardly rectifying potassium channel KCNH2 (Homo sapiens, UniProt Q12809); assay: Inhibition of human ERG by patch clamp method
T1 sequence (Q12809 whole entry): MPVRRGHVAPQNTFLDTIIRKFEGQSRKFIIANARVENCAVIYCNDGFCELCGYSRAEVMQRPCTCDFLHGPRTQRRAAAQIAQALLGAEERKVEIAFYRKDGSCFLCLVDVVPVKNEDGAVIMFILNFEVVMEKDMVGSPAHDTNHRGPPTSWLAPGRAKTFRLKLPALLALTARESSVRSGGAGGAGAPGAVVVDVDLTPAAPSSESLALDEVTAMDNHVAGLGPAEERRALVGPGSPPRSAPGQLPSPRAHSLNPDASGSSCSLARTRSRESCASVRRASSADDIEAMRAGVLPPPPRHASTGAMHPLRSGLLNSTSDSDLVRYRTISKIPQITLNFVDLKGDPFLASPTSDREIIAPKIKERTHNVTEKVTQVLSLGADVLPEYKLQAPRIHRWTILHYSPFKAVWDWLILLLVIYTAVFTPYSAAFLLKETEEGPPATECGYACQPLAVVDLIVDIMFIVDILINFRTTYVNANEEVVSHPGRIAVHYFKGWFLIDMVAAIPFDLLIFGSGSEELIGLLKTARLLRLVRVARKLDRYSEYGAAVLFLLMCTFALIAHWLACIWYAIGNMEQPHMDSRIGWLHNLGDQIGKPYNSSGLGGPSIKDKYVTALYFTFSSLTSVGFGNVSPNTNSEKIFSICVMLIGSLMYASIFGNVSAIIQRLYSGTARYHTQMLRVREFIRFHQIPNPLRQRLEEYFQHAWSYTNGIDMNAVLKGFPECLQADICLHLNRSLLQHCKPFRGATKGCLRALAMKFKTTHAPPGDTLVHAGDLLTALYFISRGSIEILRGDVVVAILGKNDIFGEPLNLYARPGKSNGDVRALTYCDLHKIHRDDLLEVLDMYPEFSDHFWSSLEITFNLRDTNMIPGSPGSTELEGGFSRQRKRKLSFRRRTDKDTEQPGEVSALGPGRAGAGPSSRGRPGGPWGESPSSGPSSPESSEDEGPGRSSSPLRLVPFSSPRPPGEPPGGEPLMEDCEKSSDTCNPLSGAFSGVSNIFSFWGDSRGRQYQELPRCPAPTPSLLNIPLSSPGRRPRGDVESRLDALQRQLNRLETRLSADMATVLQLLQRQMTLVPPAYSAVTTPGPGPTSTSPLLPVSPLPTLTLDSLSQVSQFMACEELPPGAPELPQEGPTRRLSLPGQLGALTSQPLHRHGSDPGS

Cytochrome P450 3A4 = Cytochrome P450 3A4 (Homo sapiens, UniProt P08684); assay: Inhibition of CYP3A4 (unknown origin); assay type: ADME
[3] = biological target: T1, Voltage-gated inwardly rectifying potassium channel KCNH2; assay: Inhibition of human ERG by flux-based assay
[4] = Cmax in mouse at 10 mg/kg, po after 24 hrs; assay type: ADME, organism-based; design: dose 10 mg/kg, route oral; conditions: in vivo
[5] = biological target: Nuclear receptor subfamily 1 group I member 2 (Homo sapiens, UniProt O75469); assay: Activation of PXR (unknown origin); assay type: ADME
[6] = Protein binding in human plasma; assay type: ADME, cell-free; conditions: read-out: PPB (converted)
[7] = Aqueous solubility of compound at pH 6.5; assay type: physicochemical
[8] = Oral bioavailability in BALB/c mouse at 10 mg/kg; assay type: ADME, organism-based; conditions: in vivo
[9] = AUC in BALB/c mouse at 2 mg/kg, iv; assay type: ADME, organism-based; conditions: in vivo
[10] = Half life in Sprague-Dawley rat at 10 mg/kg, po; assay type: ADME, organism-based; conditions: in vivo
[11] = Oral bioavailability in Sprague-Dawley rat at 10 mg/kg; assay type: ADME, organism-based; conditions: in vivo
[12] = AUC in Sprague-Dawley rat at 2 mg/kg, iv; assay type: ADME, organism-based; conditions: in vivo
Oryctolagus cuniculus = assay: Cardiotoxicity in rabbit assessed as decrease in mean arterial blood pressure at >3 mg/kg; assay type: toxicity, organism-based; conditions: in vivo
Rattus norvegicus = assay: Cardiotoxicity in rat assessed as decrease in blood pressure at 30 mg/kg, po; assay type: toxicity, organism-based; design: scale not given: the % may be the effect or the level left; conditions: in vivo
[13] = biological target: Rho-associated protein kinase 1 (Homo sapiens, UniProt Q13464); assay: Inhibition of Rho-associated protein kinase 1 (unknown origin)
[14] = biological target: Rho-associated protein kinase 2 (Homo sapiens, UniProt O75116); assay: Inhibition of Rho-associated protein kinase 2 (unknown origin)
[15] = biological target: Phosphatidylinositol 4,5-bisphosphate 3-kinase catalytic subunit delta isoform (Homo sapiens) (UniProt O00329); assay: Inhibition of wild-type human partial length PIK3CD (R108 to Q1044 residues) expressed in mammalian expression system assessed as residual activity at 50 nM by Kinomescan method relative to control
Phosphatidylinositol 4,5-bisphosphate 3-kinase catalytic subunit delta isoform (Homo sapiens), sequence (O00329 whole entry, the tested form may be a part, canonical isoform): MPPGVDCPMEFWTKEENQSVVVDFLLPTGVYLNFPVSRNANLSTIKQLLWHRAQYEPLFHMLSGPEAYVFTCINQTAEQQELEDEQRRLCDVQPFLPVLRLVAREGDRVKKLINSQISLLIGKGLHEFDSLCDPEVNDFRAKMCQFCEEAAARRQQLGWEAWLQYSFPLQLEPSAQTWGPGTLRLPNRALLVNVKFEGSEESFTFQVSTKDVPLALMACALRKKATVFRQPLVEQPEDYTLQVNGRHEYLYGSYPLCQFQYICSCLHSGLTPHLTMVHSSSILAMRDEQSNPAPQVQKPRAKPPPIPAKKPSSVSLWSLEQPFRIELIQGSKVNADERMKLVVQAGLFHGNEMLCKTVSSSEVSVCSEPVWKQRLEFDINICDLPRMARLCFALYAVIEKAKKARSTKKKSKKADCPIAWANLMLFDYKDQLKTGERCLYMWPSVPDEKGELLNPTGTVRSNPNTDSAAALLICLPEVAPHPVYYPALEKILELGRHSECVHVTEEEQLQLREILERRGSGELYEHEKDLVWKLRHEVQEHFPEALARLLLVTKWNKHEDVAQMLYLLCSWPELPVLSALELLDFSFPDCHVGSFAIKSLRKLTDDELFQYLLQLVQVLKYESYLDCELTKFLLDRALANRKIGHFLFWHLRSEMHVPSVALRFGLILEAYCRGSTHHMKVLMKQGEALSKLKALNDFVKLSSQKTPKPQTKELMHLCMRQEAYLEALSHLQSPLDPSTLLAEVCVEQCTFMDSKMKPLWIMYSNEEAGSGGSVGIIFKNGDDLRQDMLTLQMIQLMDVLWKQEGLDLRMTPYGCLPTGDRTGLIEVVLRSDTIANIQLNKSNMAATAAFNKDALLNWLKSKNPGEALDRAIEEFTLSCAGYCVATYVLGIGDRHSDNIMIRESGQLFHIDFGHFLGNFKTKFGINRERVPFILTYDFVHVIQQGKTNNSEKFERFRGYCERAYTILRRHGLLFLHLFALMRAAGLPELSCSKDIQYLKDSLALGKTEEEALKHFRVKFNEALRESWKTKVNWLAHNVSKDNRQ

[16] = biological target: Mitogen-activated protein kinase 9 (Homo sapiens) (UniProt P45984); assay: Inhibition of wild-type human full length JNK2 (M1 to Q382 residues) expressed in mammalian expression system assessed as residual activity at 50 nM by Kinomescan method relative to control
[17] = biological target: Protein kinase C iota type (Homo sapiens) (UniProt P41743); assay: Inhibition of recombinant human PKCiota (H215 to V587 residues) expressed in mammalian expression system assessed as residual activity at 50 nM by Kinomescan method relative to control
[18] = biological target: Myosin light chain kinase family member 4 (Homo sapiens) (UniProt Q86YV6); assay: Inhibition of wild-type human partial length SGK085 (V79 to S380 residues) expressed in bacterial expression system assessed as residual activity at 50 nM by Kinomescan method relative to control
[19] = biological target: Serine/threonine-protein kinase 16 (Homo sapiens) (UniProt O75716); assay: Inhibition of wild-type human partial length STK16 (G11 to I305 residues) expressed in bacterial expression system assessed as residual activity at 50 nM by Kinomescan method relative to control
[20] = biological target: Cyclin-dependent kinase-like 2 (Homo sapiens) (UniProt Q92772); assay: Inhibition of wild-type human partial length CDKL2 (M1 to D327 residues) expressed in bacterial expression system assessed as residual activity at 50 nM by Kinomescan method relative to control
[21] = biological target: Dual specificity tyrosine-phosphorylation-regulated kinase 1B (Homo sapiens) (UniProt Q9Y463); assay: Inhibition of wild-type human full length DYRK1B (M1 to S629 residues) expressed in bacterial expression system assessed as residual activity at 50 nM by Kinomescan method relative to control
[22] = biological target: Tyrosine-protein kinase JAK1 (Homo sapiens, UniProt P23458); assay: Inhibition of wild-type human partial length JAK1 JH2 pseudokinase domain (R537 to D855 residues) expressed in mammalian expression system assessed as residual activity at 50 nM by Kinomescan method relative to control
[23] = biological target: Tyrosine-protein kinase Lyn (Homo sapiens) (UniProt P07948); assay: Inhibition of wild-type human partial length LYN (C219 to Q511 residues) expressed in bacterial expression system assessed as residual activity at 50 nM by Kinomescan method relative to control
[24] = biological target: Serine/threonine-protein kinase PLK4 (Homo sapiens) (UniProt O00444); assay: Inhibition of wild-type human partial length PLK4 (M1 to S273 residues) expressed in mammalian expression system assessed as residual activity at 50 nM by Kinomescan method relative to control
[25] = biological target: Ribosomal protein S6 kinase beta-1 (Homo sapiens) (UniProt P23443); assay: Inhibition of wild-type human partial length P70S6K (M1 to S421 residues) expressed in mammalian expression system assessed as residual activity at 50 nM by Kinomescan method relative to control
Ribosomal protein S6 kinase beta-1 (Homo sapiens), sequence (P23443 whole entry, looked up, the tested form may be a part): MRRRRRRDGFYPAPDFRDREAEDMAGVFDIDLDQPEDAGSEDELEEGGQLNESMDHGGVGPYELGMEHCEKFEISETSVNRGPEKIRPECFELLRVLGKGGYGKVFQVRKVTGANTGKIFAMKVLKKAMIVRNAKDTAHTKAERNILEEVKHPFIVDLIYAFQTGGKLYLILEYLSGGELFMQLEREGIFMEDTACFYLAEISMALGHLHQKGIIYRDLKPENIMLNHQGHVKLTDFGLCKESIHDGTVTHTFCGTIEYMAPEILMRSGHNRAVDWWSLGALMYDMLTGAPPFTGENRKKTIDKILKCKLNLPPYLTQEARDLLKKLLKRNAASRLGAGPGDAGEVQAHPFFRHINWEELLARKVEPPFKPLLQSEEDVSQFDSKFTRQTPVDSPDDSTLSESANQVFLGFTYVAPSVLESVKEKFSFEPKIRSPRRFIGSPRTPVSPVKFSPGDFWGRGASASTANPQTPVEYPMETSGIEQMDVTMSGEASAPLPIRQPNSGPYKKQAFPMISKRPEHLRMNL

[26] = biological target: Homeodomain-interacting protein kinase 2 (Homo sapiens) (UniProt Q9H2X6); assay: Inhibition of wild-type human partial length HIPK2 (M153 to S564 residues) expressed in mammalian expression system assessed as residual activity at 50 nM by Kinomescan method relative to control
Homeodomain-interacting protein kinase 2 (Homo sapiens), sequence (Q9H2X6 whole entry, looked up, the tested form may be a part): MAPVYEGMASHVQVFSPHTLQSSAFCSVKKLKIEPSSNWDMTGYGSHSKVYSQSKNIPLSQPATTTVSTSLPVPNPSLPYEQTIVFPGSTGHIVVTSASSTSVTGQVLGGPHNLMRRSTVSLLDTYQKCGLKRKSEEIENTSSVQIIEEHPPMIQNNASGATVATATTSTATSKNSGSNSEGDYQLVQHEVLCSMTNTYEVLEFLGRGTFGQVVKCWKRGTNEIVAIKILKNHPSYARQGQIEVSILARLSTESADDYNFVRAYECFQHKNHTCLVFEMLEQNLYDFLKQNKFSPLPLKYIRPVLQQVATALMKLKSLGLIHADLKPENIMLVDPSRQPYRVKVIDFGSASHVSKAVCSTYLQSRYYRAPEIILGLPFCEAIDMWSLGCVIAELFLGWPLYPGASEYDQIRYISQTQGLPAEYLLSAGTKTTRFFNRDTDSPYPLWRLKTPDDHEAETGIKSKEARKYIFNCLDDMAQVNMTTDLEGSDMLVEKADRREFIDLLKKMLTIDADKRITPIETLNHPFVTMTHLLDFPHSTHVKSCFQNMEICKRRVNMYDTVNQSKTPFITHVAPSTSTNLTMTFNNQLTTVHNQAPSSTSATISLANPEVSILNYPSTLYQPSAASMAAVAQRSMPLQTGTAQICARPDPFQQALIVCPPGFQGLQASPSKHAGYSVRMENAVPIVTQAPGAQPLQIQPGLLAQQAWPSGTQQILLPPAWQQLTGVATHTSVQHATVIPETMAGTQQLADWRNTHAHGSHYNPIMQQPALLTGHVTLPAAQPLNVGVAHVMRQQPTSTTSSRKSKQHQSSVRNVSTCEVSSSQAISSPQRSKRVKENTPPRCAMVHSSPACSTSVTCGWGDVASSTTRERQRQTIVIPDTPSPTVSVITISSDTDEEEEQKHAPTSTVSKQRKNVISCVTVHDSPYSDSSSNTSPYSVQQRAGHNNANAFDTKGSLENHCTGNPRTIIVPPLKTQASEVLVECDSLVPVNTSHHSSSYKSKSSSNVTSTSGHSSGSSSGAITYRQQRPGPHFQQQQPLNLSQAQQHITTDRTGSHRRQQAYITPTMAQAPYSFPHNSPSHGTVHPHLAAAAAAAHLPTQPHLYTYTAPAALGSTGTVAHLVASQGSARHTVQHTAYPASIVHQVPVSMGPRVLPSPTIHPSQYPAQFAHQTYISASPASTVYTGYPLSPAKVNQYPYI

[27] = biological target: Mitogen-activated protein kinase kinase kinase 10 (Homo sapiens) (UniProt Q02779); assay: Inhibition of wild-type human partial length MLK2 (V52 to W380 residues) expressed in bacterial expression system assessed as residual activity at 50 nM by Kinomescan method relative to control
Mitogen-activated protein kinase kinase kinase 10 (Homo sapiens), sequence (Q02779 whole entry, looked up, the tested form may be a part): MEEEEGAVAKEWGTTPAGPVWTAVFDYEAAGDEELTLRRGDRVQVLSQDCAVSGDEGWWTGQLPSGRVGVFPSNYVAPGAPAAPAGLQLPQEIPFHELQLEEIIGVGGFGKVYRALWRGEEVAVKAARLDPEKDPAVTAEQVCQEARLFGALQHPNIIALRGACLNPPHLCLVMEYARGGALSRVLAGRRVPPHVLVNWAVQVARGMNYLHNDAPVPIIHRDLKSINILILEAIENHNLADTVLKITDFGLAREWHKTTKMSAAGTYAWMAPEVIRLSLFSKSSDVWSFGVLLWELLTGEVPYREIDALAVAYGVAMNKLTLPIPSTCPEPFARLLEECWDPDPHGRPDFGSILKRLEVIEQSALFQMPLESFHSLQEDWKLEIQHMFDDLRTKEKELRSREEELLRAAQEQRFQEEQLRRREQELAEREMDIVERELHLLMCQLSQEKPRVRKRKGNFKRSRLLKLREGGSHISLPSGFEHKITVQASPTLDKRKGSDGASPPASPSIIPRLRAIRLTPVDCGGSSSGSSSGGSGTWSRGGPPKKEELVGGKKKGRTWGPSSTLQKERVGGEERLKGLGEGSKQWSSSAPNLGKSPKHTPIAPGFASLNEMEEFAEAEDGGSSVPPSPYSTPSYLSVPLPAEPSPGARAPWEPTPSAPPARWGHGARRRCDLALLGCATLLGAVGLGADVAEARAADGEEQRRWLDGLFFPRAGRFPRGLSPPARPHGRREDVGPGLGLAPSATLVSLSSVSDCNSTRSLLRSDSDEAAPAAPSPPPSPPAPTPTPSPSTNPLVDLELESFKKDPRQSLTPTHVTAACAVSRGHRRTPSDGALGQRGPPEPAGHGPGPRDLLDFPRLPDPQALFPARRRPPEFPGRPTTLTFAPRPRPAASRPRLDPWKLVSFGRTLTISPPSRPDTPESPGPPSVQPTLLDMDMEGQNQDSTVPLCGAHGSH

[28] = biological target: Serine/threonine-protein kinase Nek9 (Homo sapiens) (UniProt Q8TD19); assay: Inhibition of wild-type human partial length NEK9 (P32 to R328 residues) expressed in bacterial expression system assessed as residual activity at 50 nM by Kinomescan method relative to control
[29] = Inhibition of ACTR2 (unknown origin) assessed as residual activity at 50 nM by Kinomescan method relative to control; conditions: Homo sapiens
Mus musculus [30] = species on record: Mus musculus; assay: Clearance of compound in mouse relative to hepatic blood flow; assay type: ADME; conditions: in vivo
[31] = Drug concentration in mouse after 24 hrs; assay type: ADME; conditions: in vivo, read-out: Drug uptake
[32] = Drug concentration in mouse at 10 mg/kg, po qd after 24 hrs; assay type: ADME, organism-based; conditions: in vivo, read-out: Drug uptake
Mus musculus [33] = assay: Antiarthritic activity in collagen-induced arthritis mouse model assessed as reduction in inflammation at 2 mg/kg, po qd measured up to 41 days; assay type: functional, organism-based
Mus musculus [34] = assay: Antiarthritic activity in collagen-induced mouse model assessed as […] at 10 mg/kg, po qd up to 41 days; assay type: functional, organism-based
Mus musculus [35] = assay: Antiarthritic activity in collagen-induced mouse model assessed as […] at 2 mg/kg, po qd up to 41 days; assay type: functional, organism-based
Mus musculus [36] = assay: Toxicity in collagen-induced arthritis mouse model at 50 mg/kg, po qd; assay type: organism-based; conditions: in vivo

COc1ccc(-c2cc3c(N[C@@H]4CC[C@](C)(N)C4(C)C)c(C(N)=O)cnn3c2)cn1
Ratio IC50 [1]: 130
IC50 [2]: 3 µM
IC50 (Cytochrome P450 3A4): 11 µM
IC50 [3]: > 80 µM
Cmax [4]: 1100 nM
EC50 [5]: > 17 µM
fraction unbound [6]: 0.1
solubility [7]: 79 µg/mL (≈ 193 µM)
bioavailability [8]: 73%
AUC [9]: 4.9 µM·h
half-life [10]: 12.2 h
bioavailability [11]: 44%
AUC [12]: 5.8 µM·h
Activity (Oryctolagus cuniculus): Toxic
Activity (Rattus norvegicus): 14%
IC50 [13]: 0.095 µM
IC50 [14]: 0.043 µM
Activity [15]: 100%
Activity [16]: 88%
Activity [17]: 100%
Activity [18]: 94%
Activity [19]: 87%
Activity [20]: 93%
Activity [21]: 100%
Activity [22]: 78%
Activity [23]: 100%
Activity [24]: 100%
Activity [25]: 97%
Activity [26]: 100%
Activity [27]: 94%
Activity [28]: 100%
Activity [29]: 100%

CC1(C)[C@H](Nc2c(C(N)=O)cnn3cc(-c4ccccc4)cc23)CC[C@]1(C)N
CL (Mus musculus [30]): 32%
concentration at 24 h [31]: 230 nM
concentration at 24 h [32]: 390 nM
Activity (Mus musculus [33]): inactive
Activity (Mus musculus [34]): Active
Activity (Mus musculus [35]): inactive
Activity (Mus musculus [36]): Toxic
Activity [15]: 44%
Activity [25]: 96%
Activity [26]: 97%
Activity [27]: 100%
Activity [28]: 100%
